Data on 22 molecules can be found in US6979545B2, “Method for determining chemical reactivity” (Pharmacia & Upjohn Company, priority 2000, dated 2005).

Like-named read-outs stand apart in the source and are kept apart here.

Series [1] in a line: GSH reactivity screen (mercury orange fluorescence, 96-well). It is filed as physicochemical. The note with it: for potential reactivity using the GSH reactivity screen: residual GSH by HgO fluorescence, electrophile criterion e.g. <20% GSH remaining. On the procedure: The test compounds as listed in Table 2 to be screened are dissolved in dimethyl sulfoxide (DMSO) to a final concentration of 10 mM, and 2 μL is transferred to the wells of a polypropylene 96-well microtiter plate. […] Mercury orange (HgO) stock solution (470 μM) is prepared in acetone and stored at 4° C. […] A 48 μL aliquot of the GSH working solution is pipetted into the 96-well tray containing the test compounds to yield a final concentration of 200 μM GSH. The reaction of the test compound with the GSH is allowed to proceed for 1 h at room temperature after which time an aliquot of HgO is added to each reaction well to yield a final concentration of 50 μM GSH/HgO. […] Assay linearity is investigated by preparing a GSH standard curve in the concentration range 0 to 50 μM (final concentration). Routine sample analysis is achieved using a Biomek 2000 biorobotic system configured with six 96-well plates and 2 reagent reservoirs.
Compounds are then identified as elelctrophiles based upon a predetermined criteria of GSH consumption (e.g., <20% GSH remaining).

Series [2] is described as follows: fluorescein-5-maleimide (FM)/GSH competition fluorescence test. It counts as physicochemical. The note with it: for level of fluorescence, visual observation of the cuvette: compared to a standard without the compound for screening; for electrophilic properties (conclusion): from FM/GSH fluorescence. On the procedure: A small aliquot of fluroescein-5-maleimide (FM) in dimethyl sulfoxide (DMSO) is added to a fluorometric cuvette containing 2 ml of phosphate buffered saline at a pH of 7.40. A test compound for screening in DMSO is added to the cuvette, as is a small aliquot of GSH solution. The mixture is exposed to light at 490 nm and emission is observed through a 530 nm bandpass filter. The color of the resulting mixture is observed and the amount of fluorescence is measured.

The mark [3] stands for this setting: test compound with 200 μM GSH, 1 h at room temperature.
The mark [4] stands for this setting: test compound with 200 μM GSH, 1 h at room temperature, no metabolic activation, no glutathione transferase.
The mark [5] stands for this setting: phosphate buffered saline pH 7.40, excitation 490 nm, emission 530 nm.

`O=[N+]([O-])c1csc(Br)n1` [2-Bromo-4-nitrothiazole]: the “potential reactivity using the GSH reactivity screen” value (“potential reactivity” for short) in series [1] (setting [3]) was “R”. In addition, the “result in the GSH screen (in words)” value in series [1] (setting [4]) is “reactive”.

With `Cc1cc(C(C)(C)C)c(O)c(C(C)(C)C)c1` [Butylated hydroxytoluene], the “result in the GSH screen (in words)” value in series [1] (setting [4]) is “non-reactive”.

Consider `ClC(Cl)Cl` [Chloroform], for which, in series [1], the “result in the GSH screen (in words)” value was “non-reactive”.

`C/C=C/C=O` [trans Crotonaldehyde]: in series [1] (setting [3]), the “potential reactivity” value is recorded as “R”. The “result in the GSH screen (in words)” value in series [1] (setting [4]) is given as “reactive”.

Turning to `CC(=O)Nc1ccc(O)cc1` [acetaminophen], the “result in the GSH screen (in words)” value in series [1] (setting [4]) is “non-reactive”.

Consider `Cc1ccccc1` [Toluene], for which the “result in the GSH screen (in words)” value in series [1] (setting [4]) is “non-reactive”.

`O=C(O)Cc1ccccc1Nc1c(Cl)cccc1Cl` [Diclofenac]: the “result in the GSH screen (in words)” value in series [1] (setting [4]) is on record as “non-reactive”.

In the case of `O=[N+]([O-])c1ccc(Cl)cc1` [1-Chloro-4-nitrobenzene], the “result in the GSH screen (in words)” value in series [1] is “non-reactive”.

Consider `O=C1C=C(c2ccccc2)C(=O)N1` [Phenylmaleimide], for which the “potential reactivity” value in series [1] (setting [3]) was “R”. The “result in the GSH screen (in words)” value in series [1] (setting [4]) is reported as “reactive”.

Consider `O=[N+]([O-])c1ccc(Cl)c([N+](=O)[O-])c1` [1-chloro-2,4-dinitrobenzene], for which the “result in the GSH screen (in words)” value in series [1] (setting [4]) was “non-reactive”.

On to `O=C1NC(=O)C(c2ccccc2)(c2ccccc2)N1` [Phenytoin], for which the “result in the GSH screen (in words)” value in series [1] (setting [4]) is given as “non-reactive”.

Take `COc1ccc(O)c(C(C)(C)C)c1` [Butylated hydroxyanisole]: the “result in the GSH screen (in words)” value in series [1] (setting [4]) is on record as “non-reactive”.

For `COc1ccc(Cl)c([N+](=O)[O-])c1` [4-chloro-3-nitroanisole], the “result in the GSH screen (in words)” value in series [1] (setting [4]) is reported as “non-reactive”.

As for `CC(=O)NC1=C(Cl)C(=O)c2ccccc2C1=O`, in series [2], the “level of fluorescence, visual observation of the cuvette” value is recorded as “appreciably reduced” and the “electrophilic properties (conclusion)” value is given as “having electrophilic properties”. Moreover, in series [2] (setting [5]), the “reactivity of this compound toward GSH as compared to the FM standard (in words)” value is recorded as “slightly greater”.

As for `N#Cc1ccc(Cl)c([N+](=O)[O-])c1` [4-chloro-3-nitrobenzonitrile], in series [1] (setting [4]), the “result in the GSH screen (in words)” value is “non-reactive”.

In the case of `N#Cc1ccc(Cl)cc1` [4-Chlorobenzonitrile], the “result in the GSH screen (in words)” value in series [1] is given as “non-reactive”.

Turning to `c1ccccc1` [Benzene], the “result in the GSH screen (in words)” value in series [1] (setting [4]) is given as “non-reactive”.

With `O=C(CCCN1CCC(O)(c2ccc(Cl)cc2)CC1)c1ccc(F)cc1` [Haloperidol], the “result in the GSH screen (in words)” value in series [1] (setting [4]) is listed as “non-reactive”.

Consider `CC/C(=C(\c1ccccc1)c1ccc(OCCN(C)C)cc1)c1ccccc1` [Tamoxifen], for which, in series [1] (setting [4]), the “result in the GSH screen (in words)” value was “non-reactive”.

On to `O=[N+]([O-])c1cc(O)ccc1Cl` [4-chloro-3-nitrophenol], for which, in series [1] (setting [4]), the “result in the GSH screen (in words)” value was “non-reactive”.

Regarding `O=C1C=CC(=O)N1c1cccc(C(F)(F)F)c1`, in series [2], the “level of fluorescence, visual observation of the cuvette” value is reported as “does not appreciably change” and the “electrophilic properties (conclusion)” value was “not having electrophilic properties”. Moreover, the “reactivity of this compound toward GSH as compared to the FM standard” value in series [2] (setting [5]) is on record as 2.95 times less.

As for `Nc1ccc(Cl)c([N+](=O)[O-])c1` [4-chloro-3-nitroaniline], in series [1] (setting [4]), the “result in the GSH screen (in words)” value is reported as “non-reactive”.
